# Test results reported in article PMC1481600 (AIDS Research and Therapy, 2006).
# Read-outs that look alike come from different tables or passages of the source. Non-standard residues stand in square brackets, D forms with d. Residues, ends and D or L forms follow the SMILES beside them. Groups on a side chain read outwards from the residue. *: point of attachment. Biotin = O=C1N[C@H]2[C@H](CS[C@H]2CCCCC(=O)*)N1; Ahx = NCCCCCC(=O)O
# Columns and labels:
# HIV-1 strain LAV-Vbu3 [1] = system: HIV-1 strain LAV-Vbu3
# in vitro = conditions: human
# HIV-1 strain LAV-Vbu3 [2] = experiment: microbe, parasite or virus in culture; conditions: Human immunodeficiency virus 1, MT2, 120 h, read-out: EC50 (anti-HIV activity)
# [3] = design: method as in PMID 15546199; conditions: spiked plasma, 37°C; cited from earlier work
# [4] = design: method as in PMID 15546199; conditions: PBS pH 7.4, 37°C; cited from earlier work
structure (smiles),measurement,setting,value
"CC(=O)N[C@@H](CCCNC(=N)N)C(=O)N[C@@H](CCCCN)C(=O)N[C@@H](CCCCN)C(=O)N[C@@H](CCCNC(=N)N)C(=O)N[C@@H](CCCNC(=N)N)C(=O)N[C@@H](CCC(N)=O)C(=O)N[C@@H](CCCNC(=N)N)C(=O)N[C@@H](CCCNC(=N)N)C(=O)N[C@@H](CCCNC(=N)N)C(N)=O [L-Tat9, reference compound]",Therapeutic Index (LC50/EC50),HIV-1 strain LAV-Vbu3 [1]; listed as L-form of Tat9,poorest therapeutic index
same,EC50,"HIV-1 strain LAV-Vbu3 [1]; read-out: EC50 (anti-HIV activity), MT-2 cells infected with HIV-1 strain LAV-Vbu3, MOI 0.01, MTT, 5 days",51.3 µM
same,Therapeutic Index (LC50/EC50),HIV-1 strain LAV-Vbu3 [1]; strain LAV-Vbu3,1
same,CC50,in vitro,53.8 µM
CC(=O)N[C@H](CS)C(=O)N[C@H](CCCCNC(=O)CCCCCNC(=O)CCCC[C@@H]1SC[C@@H]2NC(=O)N[C@@H]21)C(=O)N[C@H](CCCNC(=N)N)C(=O)N[C@H](CCCNC(=N)N)C(=O)N[C@H](CCCNC(=N)N)C(=O)N[C@H](CCC(N)=O)C(=O)N[C@H](CCCNC(=N)N)C(=O)N[C@H](CCCNC(=N)N)C(=O)N[C@H](CCCCN)C(=O)N[C@H](CCCCN)C(=O)N[C@H](CCCNC(=N)N)C(N)=O [R.I.CK(biotin)-Tat9] (Ac-[dC][dK]([Ahx-Biotin])[dR][dR][dR][dQ][dR][dR][dK][dK][dR]-NH2),anti-HIV potency relative to L-Tat9 (times more potent),HIV-1 strain LAV-Vbu3 [1]; MT-2 cells infected with HIV-1,2850 fold
same,anti-HIV potency relative to RI-Tat9 (times more potent),HIV-1 strain LAV-Vbu3 [1]; MT-2 cells infected with HIV-1,47 fold
same,R (ratio of the EC50 of the bioconjugate to that of its parent drug R.I.CK-Tat9 or SQV),"HIV-1 strain LAV-Vbu3 [1]; MT-2 cells, HIV-1 LAV-Vbu3, MOI 0.01",0.02
same,EC50,HIV-1 strain LAV-Vbu3 [1]; strain LAV-Vbu3,0.018 µM
same,Therapeutic Index (LC50/EC50),HIV-1 strain LAV-Vbu3 [1]; strain LAV-Vbu3,2600
same,CC50,in vitro,46.8 µM
"CC(=O)N[C@H](CS)C(=O)N[C@H](CCCCN)C(=O)N[C@H](CCCNC(=N)N)C(=O)N[C@H](CCCNC(=N)N)C(=O)N[C@H](CCCNC(=N)N)C(=O)N[C@H](CCC(N)=O)C(=O)N[C@H](CCCNC(=N)N)C(=O)N[C@H](CCCNC(=N)N)C(=O)N[C@H](CCCCN)C(=O)N[C@H](CCCCN)C(=O)N[C@H](CCCNC(=N)N)C(N)=O [R.I.CK-Tat9, N-acetyl-ckrrrqrrkkr-NH2] (Ac-[dC][dK][dR][dR][dR][dQ][dR][dR][dK][dK][dR]-NH2)",anti-HIV potency relative to L-Tat9 (times more potent),HIV-1 strain LAV-Vbu3 [1]; MT-2 cells infected with HIV-1,60 fold
same,EC50,HIV-1 strain LAV-Vbu3 [1]; strain LAV-Vbu3,0.85 µM
same,Therapeutic Index (LC50/EC50),HIV-1 strain LAV-Vbu3 [1]; strain LAV-Vbu3,35
same,CC50,in vitro,29.8 µM
"CC(C)(C)NC(=O)[C@@H]1C[C@@H]2CCCC[C@@H]2CN1C[C@@H](O)[C@H](Cc1ccccc1)NC(=O)[C@H](CC(N)=O)NC(=O)c1ccc2ccccc2n1 [SQV(MeSO3H) (control), saquinavir, reference compound]",Therapeutic Index (LC50/EC50),"HIV-1 strain LAV-Vbu3 [1]; MT-2 cells, LC50 in uninfected cells / EC50 in infected cells",1667
same,EC50,HIV-1 strain LAV-Vbu3 [2],0.015 µM
same,CC50 at 5 days,in vitro,25 µM
CC(C)(C)NC(=O)[C@@H]1C[C@@H]2CCCC[C@@H]2CN1C[C@@H](OC(=O)C(N)CS)[C@H](Cc1ccccc1)NC(=O)[C@H](CC(N)=O)NC(=O)c1ccc2ccccc2c1 (stereo partly shown) [SQV-Cys ester],half-life of release of active SQV (ester bond),[3],0.9 h
same,half-life of release of active SQV (ester bond),[4],14 h
